Laboratory results as given in patent US6531582B1, “2-O-(9z,12z-octadecadienoyl)-3-O-[α-D-galactopyranosyl-(1″-6′)-O-α-D-galactopyranosyl]glycerol and pharmaceutical composition containing the same” (priority 2000, dated 2003).
“Also recorded” adds a separate entry of the source.

Experiments:
edema of arthritis = test: Inhibitory effect on edema of arthritis (Zymosan-A/Freund's adjuvant induced paw edema); assay type: in vivo; conditions: albino rats; for inhibitory effect on edema: test for edema induction
Protocol: In order to observe the inhibitory effect on edema of the pharmaceutical composition of the present invention, 6 albino rats weighing 200 g were used per test group to induce edema by injecting the mixture of 0.5 ml of Zymosan-A (20 mg/ml/kg) and 0.5 ml of Freund's adjuvant into ST36 position of left paw and then observed for the progress of edema for 70 days by taking a photograph before and after induction of edema. The water extract and organic solvent fractions of the pharmaceutical composition of the present invention were respectively constituted in the concentration of 0.6 mg/ml and then orally administered for 14 days to albino rats in an amount of 1 ml per kg of body weight once a day to determine the inhibitory effect on edema. As the test sample, the organic solvent fractions of the pharmaceutical composition including ABE, ABB, ABW, CBE, CBB, CBW, LNE, LNB, LNW, CRB, CRW, SSH and SSW were respectively used. As the result of this test, it was observed that edema was started to induce on day 4 and reached the peak point after about 45 days. The period for this test was established as 70 days after edema induction to observe the inhibitory effect on edema of the extracts of the present invention. As the result, the edema size was measured using a precision gauge.
The inihibitory effect on edema of the compound according to the present invention as measured after 70 days have passed are listed in the following Tables 2 and 3 and FIG. 4.

[1] = system: CAM formation induced by synovial cells; test: Angiogenesis of synovial cells in chorioallantoic membrane (CAM) of fertilized egg; assay type: in vivo; conditions: 10 μg/ml on CAM, synovial cells injected, compared to control group
Protocol: In order to determine the effect of the organic solvent fractions on the angionenesis of synovial cells using the cells separated in Experiment 2, synovial cells were injected into fertilized egg and then incubated in an incubator at 37° C. for 3 days to observe the formation of chorioallantoic membrane (CAM). In the present state, the fractions separated according to the above method were respectively distributed on CAM at the concentration of 10 μg/ml to observe the degree of CAM decrease.

[2] = system: NO formation in RAW 264.7 cell lines; test: NO formation in macrophage cells stimulated by lipid polysaccharide (Greiss reagent); assay type: cell-based; conditions: 10 μg/ml, LPS-stimulated RAW 264.7
Protocol: FIG. 7 is (a) a bar graph showing the inhibition of NO formation when Raw 264.7 cell lines are treated with the organic solvent fraction of a single drug of the pharmaceutical composition at the concentration of 10 μg/ml for 24 hours an then stimulated with LPS, and (b) a bar graph showing the inhibition of NO formation when the cell lines treated with CBB fraction and LNE fraction as the organic solvent fractions are stimulated with LPS according to the same manner as above (a).
In order to identify whether the extracts obtained according to the present invention can inhibit the synthesis of nitric oxide (NO) as the potent inducer of inflammation in blood due to edema as above, macrophage RAW 264.7 cell lines were distributed in a 96-well microplate at the concentration of 10^3 cells per well and then incubated for 12 hours. Then, lipid polysaccharide was added to the plate at the concentration of 50 ng/well to stimulate the cells for 2 hours. The respective organic solvent fractions were added to the plate to the final concentration of 10 μg/ml followed by addition of 50 μl of Greiss reagent solution, and then allowed to react together at room temperature. Then, the absorbance of the plate was measured at 540 nm of ELISA (enzyme-linked immunosorbent assay) reader. […]

Raw 264.7 cell lines [3] = test: Induction of apoptosis of macrophages; assay type: cell-based; conditions: Raw 264.7, 24 hours, microscopy
Protocol: (§1) In order to determine whether the compound identified as the effective component of the pharmaceutical composition separated according to the present invention can induce the apoptosis of Raw 264.7 cell lines as macrophage involved in inflammatory reaction and synovial cells, the cells were distributed on 5% DMEM medium supplemented with penicillin/streptomycin in a 6-well culture dish at the concentration of 10^4 cells and then incubated at 37° C. for 24 hours while adding the extractions as above at the concentration of 10 μg/ml to observe the reaction. Apoptosis was examined by taking a photograph of apoptosis-induced cells under a polarizing microscope of 200 magnifications.

synovial cells = test: Induction of apoptosis of synovial cell lines; assay type: cell-based, human; conditions: 24 hours, microscopy
Protocol: The synovial cells separated from outpatients suffering from rheumatoid arthritis were distributed on 5% DMEM medium supplemented with penicillin/streptomycin in a 6-well culture dish at the concentration of 10^4 cells and then incubated for 24 hours at 37° C. to observe the surviving cells. In order to determine the presence or absence of cells and the proliferating state of cells, apoptosis-induced cells were examined by taking their photographs under a phase-contrast microscope of 200 magnifications.
as §1

Raw 264.7 cell lines [4] = test: Effect on cell cycle of macrophage cells (flow cytometry); assay type: cell-based; conditions: Raw 264.7, LPS-stimulated, 20 μg/ml
Protocol: (§2) Two kinds of cells were incubated as in Experiment 6 and then washed with PBS (phosphate-buffered saline). LPS was distributed on the respective dishes at the concentration of 50 μg/ml to stimulate the cells. Then, the extract according to the present invention was added over 2 hours so as to make the final concentration of 20 μg/ml. The supernatant was removed, washed with PBS and then treated with trypsin. The cells were harvested, introduced into Eppendorf tube and then centrifuged at 1,000 rpm for 5 minutes to remove the supernatant. The residue was fixed with addition of 1 ml of 100% ethanol. At this time, the mixture of 5 μg/ml propidium iodide and RNAse was separately prepared. The fixed cells were centrifuged to remove the supernatant and then washed once with PBS. Simultaneously, the staining agent as previously prepared above was added to the fixed cells and then warmed in an incubator at 37° C. for 30 minutes. The cells stained with propidium iodide was sealed with foil, stored at 4° C. and then subjected to a flow cytometry analysis using FACscan (Becton Dickinson, Calif.) as the analyzing apparatus.

synovial cell lines = test: Effect on cell cycle of synovial cell lines (flow cytometry); assay type: cell-based, human; conditions: LPS-stimulated, 20 μg/ml
Protocol: as §2

iNOS = test: Inhibition of iNOS expression at the level of transcription through RT-PCR; assay type: cell-based, human; conditions: FIG. 12a, lanes 1-8; 50 μg/ml, LPS-stimulated
Protocol: (§3) In order to identify the ingredient having an inhibitory activity against COX-II and inducible nitric oxide synthetase (iNOS) as the causal factors of rheumatoid arthritis in the extract used as the effective component of the pharmaceutical composition according to the present invention as in Experiment 7 above, the cells were distributed in T75 flask at the concentration of 10^5 cells, incubated for 7 days and then stimulated for 2 hours by introducing LPS in the flask at the concentration of 50 ng/ml. Then, the extract of the present invention was added so as to make the final concentration of 50 μg/ml. The cells were harvested into a 1.5 ml Eppendorf tube and centrifuged with 15,000 rpm at 4° C. for 15 minutes to remove the supernatant. 200 μl of RNAzol solution was added to the residue followed by addition of 50 μl of chloroform. The cells were lysed by careful pippeting, and then centrifuged with 15,000 rpm at 4° C. for 15 minutes to recover a total RNA, which was then precipitated at 4° C. for 15 minutes by adding the same volume of isopropanol, washed once with 75% ethanol and then dried. The cell lysate was dissolved by adding 20 μl of RNase free D2O and then warming the mixture at 60° C. for 30 minutes. […]

COX-II = test: Inhibition of COX-II expression at the level of transcription through RT-PCR; assay type: cell-based, human
Protocol: as §3

[5] = system: cartilage and bone of arthritic joint; test: Joint rupture in edema-inhibited albino rats by X-ray analysis; assay type: in vivo; conditions: edema-induced albino rats, oral, about 70 days
Protocol: FIG. 13 is X-ray photograph to show the 70-days inhibitory effect on edema as one of chronic and degenerative osteopathological symptoms of arthritis by treating the induced edema with respective fractions obtained as the organic solvent fractions of the pharmaceutical composition in an amount of 75 μg/ml for 2 weeks via oral route.
The respective water extract and organic solvent fractions were orally administered for 14 days at the concentration of 75 μg/ml to investigate their inhibitory effect on edema as in Experiment 1. The test albino rats were anesthetized to take X-ray photograph.

[6] = system: nogo-A expressed U-373 MG glioblastoma cell line; test: Therapeutic effect on vertebral neuroparalysis (neurite regeneration in nogo-A expressing cells); assay type: cell-based; conditions: nogo-A expressed U-373 cell lines, phase-contrast microscopy
Description: Simultaneously, it was also observed whether neurites can be regenerated by treatment with neuronal growth factor (NGF) or whether the fractions of the present invention can provide the same effect, by taking a photograph with a phase-contrast microscope of 200 magnifications.

[7] = Effect of the compounds separated from Cibotii rhizoma on arthritis; conditions: summary statement
smooth muscle = conditions: cited from earlier work

Row | Compound | edema size, Before treatment (edema of arthritis; Table 3 (unit not given), oral, baseline before treatment, in mm) | edema size, After treatment (edema of arthritis; Table 3 (unit not given), oral, measured after 70 days, in mm) | inhibitory effect on edema (edema of arthritis) | inhibition of induction of CAM formation [1] | inhibition of NO formation [2] | induction of apoptosis (Raw 264.7 cell lines [3]) | induction of apoptosis (synovial cells) | effect on cell cycle (Raw 264.7 cell lines [4]) | effect on cell cycle (synovial cell lines) | effect on iNOS expression (RT-PCR, band near 278 bp) (iNOS) | effect on COX-II expression (RT-PCR) (COX-II; FIG. 12a, lanes 1-8, 50 μg/ml, LPS-stimulated) | effect on COX-II expression (RT-PCR) (COX-II; FIG. 12c, respective fractions) | osteogenesis (X-ray) [5] | rupture of cartilage in arthritic portion (X-ray) [5] | regeneration of neurites [6] | pharmacological effect on arthritis [7] | activity for relaxing smooth muscle (smooth muscle)
1 | 2-O-(9z,12z-octadecadienyl)-3-O-[α-galactopyranosyl-(1″-6′)-O-α-D-galactopyranosyl]glycerol [CBB-13] | 14.4 ± 2 | 2.5 ± 1 | potent inhibitory effect on edema; also recorded: most significant | more strongly inhibited the induction of CAM formation | stronger inhibitory effect on NO formation | more strongly inducing the apoptosis | more strongly inducing the apoptosis | induced the apoptosis | pattern of G0/G1 arrest | have an effect on the protein expression | inhibitory effect at the level of transcription | strongly inhibit the protein expression | effect of stimulating the osteogenesis | inhibits the rupture of cartilage in arthritic portion | neurites were lengthened | most excellent pharmacological effect | –
2 | Cc1c(O)c2c(c(C)c1CCO)C(=O)C(C)(C)C2 [CBB-11, onitin] | – | – | – | – | – | – | – | – | – | – | – | – | – | – | – | moderate pharmacological effect | activity for relaxing smooth muscle
3 | CC[C@H](CC[C@@H](C)[C@H]1CC[C@H]2[C@@H]3CC=C4C[C@@H](O[C@@H]5O[C@H](CO)[C@@H](O)[C@H](O)[C@H]5O)CC[C@]4(C)[C@H]3CC[C@]12C)C(C)C [CBB-12, daucosterol] | – | – | potent inhibitory effect on edema | – | – | – | – | – | – | – | – | – | – | – | – | – | –
